For 23 compounds, IC50 and melting point results are on record in patent US20100240713A1, “AROMATIC AND HETEROAROMATIC COMPOUNDS USEFUL IN TREATING IRON DISORDERS” (XENON PHARMACEUTICALS INC., priority 2007, published 2010).

A word on the IC50: it is the midpoint of a concentration-inhibition curve. High values mean weaker potency, low ones greater potency. Broadly, the melting point is the temperature of the solid-liquid transition.

Counter-ions that a name gives are not always drawn. Bounds are passed on as bounds.

In the first data set the target is T1, DMT1 (Homo sapiens, UniProt P49281).
T1 sequence (P49281 1-568): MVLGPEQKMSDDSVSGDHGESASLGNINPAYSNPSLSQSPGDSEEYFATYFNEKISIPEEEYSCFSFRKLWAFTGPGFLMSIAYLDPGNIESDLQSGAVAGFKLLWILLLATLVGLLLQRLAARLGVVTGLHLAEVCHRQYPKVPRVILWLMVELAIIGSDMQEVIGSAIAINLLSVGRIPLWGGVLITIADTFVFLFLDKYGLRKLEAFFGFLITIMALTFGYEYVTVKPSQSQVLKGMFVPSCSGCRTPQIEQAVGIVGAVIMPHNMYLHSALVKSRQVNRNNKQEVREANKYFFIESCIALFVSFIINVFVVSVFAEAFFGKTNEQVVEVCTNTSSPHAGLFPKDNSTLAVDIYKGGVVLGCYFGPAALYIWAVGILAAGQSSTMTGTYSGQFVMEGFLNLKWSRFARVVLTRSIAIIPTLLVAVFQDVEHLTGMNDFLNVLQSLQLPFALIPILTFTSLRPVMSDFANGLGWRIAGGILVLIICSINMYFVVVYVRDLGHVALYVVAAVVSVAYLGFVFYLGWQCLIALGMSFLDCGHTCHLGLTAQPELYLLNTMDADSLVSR
As to the kind of experiment: DMT1 activity assay (IC50 activity level, Table 1). It counts as cell-based. The conditions noted are these: inhibition of DMT1. From the text: This example discloses various in vitro assay for testing and profiling test agents against DMT1 stably expressed in cells of either an endogenous or recombinant origin. These assays can use stable cell lines overexpressing DMT1 or intestinal cells and intestinal tissue expressing endogenous DMT1. DMT1 function could also be assessed in other cell types that express DMT1. Of greatest relevance would be the erythrocytes (e.g. K562 cells) or hepatocytes (e.g. […]).
DMT1 function can be assessed in a number of ways, including monitoring fluorescence changes of an iron fluorophore (e.g. calcein), monitoring uptake of radiolabelled iron (^55Fe or ^59Fe) (Picard et al., J. Biol. Chem., 2000, 275(46):35738-45 and Wetli et al., Chem. Biol. 2006 September; 13(9):965-72), or by assessing the current or transport of iron and other metals into the cells or tissues using standard electrophysiological techniques (Gunshin et al., Nature, 1997, 388(6641):482-8.).
Variations of these assays involve alterations of incubation times, the iron status of the cells and tissues (which may be modulated by chemical chelators or by harvesting from iron deficient animals), the metal cation detected and the pH of the reaction can generally be made by conventional techniques known to those skilled in the art.
The Example numbers provided in Table 1 correspond to the Examples herein: […]
Take `CN/C(=N\C#N)NCc1c(C)cc(C)c(CN/C(=N/C#N)NC)c1C` [Example 2, 1,3-di[(2-cyano-3-methylguanidino)methyl]-2,4,6-trimethylbenzene]: the IC50 is no less than 1000 nM.
Regarding `N=C(N)Cc1cccc(CC(=N)N)c1` [Example 4, 2,2′-(1,3-phenylene)diacetimidamide], the IC50 was no less than 1000 nM.
With `CNC(=N)SCc1c(C)cc(C)c(CSC(=N)NC)c1C.Cl` [Example 7, 1,3-di[(methylamidino)thiomethyl]-2,4,6-trimethylbenzene 4-methylbenzenesulfonate hydrochloride], the IC50 was no less than 1000 nM.

Test system in another data set: not given
Assay: not given
Settings: not given
Consider `CCOC(=O)c1cc(C(=O)OCC)c(CSC(=N)N)cc1CSC(=N)N` (as salt: hydrobromid) [Example 3.4, diethyl 4,6-bis(carbamimidoylthiomethyl)isophthalate dihydrobromide], for which the melting point lay in the range of 237 to 238 °C.
Regarding `N=C(N)SCc1cccc(CSC(=N)N)n1` (as salt: hydrobromid) [Example 3.12, pyridine-2,6-diylbis(methylene)dicarbamimidothioate dihydrobromide], the melting point is 208 to 210 °C.
The same measure, in the same setting: to `N=C(N)SCc1cccc2cccc(CSC(=N)N)c12` (as salt: hydrobromid) [Example 3.13, naphthalene-1,8-diylbis(methylene)dicarbamimidothioate dihydrobromide] belongs 230 to 233 °C; to `N#Cc1c(CSC(=N)N)cccc1CSC(=N)N` (as salt: hydrobromid) [Example 3.14, (2-cyano-1,3-phenylene)bis(methylene)dicarbamimidothioate dihydrobromide], 270 to 272 °C (dec.).
Same read-out and setting: in the case of `COc1c(CSC(=N)N)cc(C)cc1CSC(=N)N` (as salt: hydrobromid) [Example 3.18, (2-methoxy-5-methyl-1,3-phenylene)bis(methylene)dicarbamimidothioate dihydrobromide] it was 236 to 239 °C; in that of `Cc1c(CSC(=N)N)cccc1CSC(=N)N` (as salt: hydrobromid) [Example 3.21, (2-methyl-1,3-phenylene)bis(methylene)dicarbamimidothioate dihydrobromide], 258 to 261 °C.
Same read-out and setting: in the case of `Cc1c(C)c(C)c(CSC(=N)N)c(CSC(=N)N)c1C` (as salt: hydrobromid) [Example 3.22, (3,4,5,6-tetramethyl-1,2-phenylene)bis(methylene)dicarbamimidothioate dihydrobromide] it was greater than 265 °C.
In the case of `CC(C)(SC(=N)N)c1cccc(C(C)(C)SC(=N)N)c1` (as salt: hydrobromid) [Example 6, 2-{1-[3-(1-carbamimidoylsulfanyl-1-methylethyl)phenyl]-1-methylethyl}-isothiourea dihydrobromide], the melting point lay in the range of 142 to 144 °C.
Still for that read-out and setting: to `Cc1cc(C)c(C(C)SC(=N)N)c(C)c1C(C)SC(=N)N` (centres unmarked) (as salt: hydrobromid) [Example 6.1, 2-{1-[3-(1-carbamimidoylsulfanylethyl)-2,4,6-trimethylphenyl]ethyl}-isothiourea dihydrobromide] belongs 204 to 206 °C.
For `Cc1cc(CSC(=N)N)c(O)c(CSC(=N)N)c1` (as salt: hydrobromid) [Example 6.2, (2-hydroxy-5-methyl-1,3-phenylene)bis(methylene)dicarbamimidothioate dihydrobromide], the melting point fell in the range of 223 to 225 °C.
The same measure, in the same setting: to `Cc1c(C)c(CSC(=N)N)c(C)c(CSC(=N)N)c1C` (as salt: hydrochloride) [Example 3.5, (2,4,5,6-tetramethyl-1,3-phenylene)bis(methylene)dicarbamimidothioate dihydrochloride] belongs greater than 260 °C; to `N=C(N)SCc1c(Cl)c(Cl)c(Cl)c(CSC(=N)N)c1Cl` (as salt: hydrochloride) [Example 3.6, (2,4,5,6-tetrachloro-1,3-phenylene)bis(methylene)dicarbamimidothioate dihydrochloride], 208 to 210 °C; to `N=C(N)SCc1nnc(CSC(=N)N)n1N` (as salt: hydrochloride) [Example 3.7, (4-amino-4H-1,2,4-triazole-3,5-diyl)bis(methylene)dicarbamimidothioate dihydrochloride], 213 °C (dec.).
Still for that read-out and setting: to `N=C(N)SCc1n[nH]c(CSC(=N)N)n1` (as salt: hydrochloride) [Example 3.8, (1H-1,2,4-triazole-3,5-diyl)bis(methylene)dicarbamimidothiodate dihydrochloride] belongs 196 to 200 °C.
On the same count and under the same terms, in the case of `Cc1cc(C)c(CSC(=N)N)cc1CSC(=N)N` (as salt: hydrochloride) [Example 3.16, (4,6-dimethyl-1,3-phenylene)bis(methylene)dicarbamimidothioate dihydrochloride] it was 248 to 251 °C; in that of `Cc1c(CSC(=N)N)cc(CSC(=N)N)c(C)c1Br` (as salt: hydrochloride) [Example 3.17, (5-bromo-4,6-dimethyl-1,3-phenylene)bis(methylene) dicarbamimidothioate dihydrochloride], 270 to 273 °C; in that of `Cc1c(O)c(C)c(CSC(=N)N)c(C)c1CSC(=N)N` (as salt: hydrochloride) [Example 3.19, (5-hydroxy-2,4,6-trimethyl-1,3-phenylene)bis(methylene) dicarbamimidothioate dihydrochloride], 175 to 178 °C.
`Cc1nc(C)c(CSC(=N)N)c(C)c1CSC(=N)N` (as salt: hydrochloride) [Example 8, (2,4,6-trimethylpyridine-3,5-diyl)bis(methylene)dicarbamimidothioate dihydrochloride]: the melting point was in the range of 185 to 187 °C.
Still for that read-out and setting: in the case of `N=C(N)SC(=O)c1sc(C(=O)SC(=N)N)c(Cl)c1Cl` (as salt: hydrochloride) [Example 9, 2-(5-carbamimidoylsulfanecarbonyl-3,4-dichlorothiophene-2-carbonyl)isothiourea dihydrochloride] it was 215 to 218 °C; in that of `Cc1cc(C)c(CNC(=N)N)c(C)c1CNC(=N)N` (as salt: toluenesulfonate) [Example 1, N-(3-guanidinomethyl-2,4,6-trimethylbenzyl)guanidine, bis(p-toluenesulfonate)], greater than 250 °C; in that of `CN/C(=N\C#N)NCc1c(C)cc(C)c(CN/C(=N/C#N)NC)c1C` [Example 2, 1,3-di[(2-cyano-3-methylguanidino)methyl]-2,4,6-trimethylbenzene], 270 to 272 °C.
`N=C(N)Cc1cccc(CC(=N)N)c1` [Example 4, 2,2′-(1,3-phenylene)diacetimidamide] came in with a melting point of 200 to 205 °C.
Still for that read-out and setting: to `CNC(=N)SCc1c(C)cc(C)c(CSC(=N)NC)c1C.Cl` [Example 7, 1,3-di[(methylamidino)thiomethyl]-2,4,6-trimethylbenzene 4-methylbenzenesulfonate hydrochloride] belongs 223 to 225 °C.
